The experiment deals with T1, OR11A1 (reference haplotype MA) (Homo sapiens, UniProt Q9GZK7).
T1 construct: Hana3A cells co-transfected with RTP1S and M3-R
T1 sequence (Q9GZK7 1-315): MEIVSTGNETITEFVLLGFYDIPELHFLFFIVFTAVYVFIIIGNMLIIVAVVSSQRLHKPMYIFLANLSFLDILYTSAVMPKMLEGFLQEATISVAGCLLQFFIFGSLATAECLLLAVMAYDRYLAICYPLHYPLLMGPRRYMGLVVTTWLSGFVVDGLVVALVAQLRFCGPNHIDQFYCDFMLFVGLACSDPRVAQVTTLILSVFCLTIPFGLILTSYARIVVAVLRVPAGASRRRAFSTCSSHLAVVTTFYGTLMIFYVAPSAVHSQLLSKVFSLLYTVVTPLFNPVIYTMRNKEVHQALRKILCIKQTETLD
As to the kind of experiment: CRE-luciferase reporter assay in Hana3A cells. The following applies: read-out: log(EC50 of reference MA) (converted). Type of experiment: cell-based.

Each structure is given as a SMILES string.

With `CCC1(O)C2(C)CCC(C2)C1(C)C` (stereo not shown) [2-ethylfenchol], the EC50 was 158 nM.

Source of the values: article doi:10.1101/212431v1, “Genetic variation across the human olfactory receptor repertoire alters odor perception” (biorxiv, 2017).
